According to patent US20260242402A1, “PRODRUGS OF STAT3 INHIBITORS” (Tvardi Operating Company, Inc., priority 2022, published 2026):
Converted amounts (≈) assume the structure as drawn. Where a name gives a salt, the structure may show the parent alone. Read-outs that look alike come from different tables or passages of the source.

What was measured:
in vitro = conditions: human, plasma
physchem [1] = conditions: buffer, pH 7.4
[2] = male, SD, rat, in vivo, po
[3] = male, cynomolgus monkey, in vivo, po
physchem [4] = conditions: thermodynamic from solid
[5] = not given; remark: listed apart in the source
[6] = Solubility of TTI-101 as described in the text; assay type: physicochemical; conditions: aqueous solutions
in vivo = conditions: rat
[7] = Pharmacokinetics in monkeys (TTI-101 in plasma by LC-MS/MS); conditions: male, cynomolgus monkey, iv, 26 mg/kg
[8] = pH 2, aqueous buffer, Solubility (pH = 2.0)

For CNCCCN(C)C(=O)Oc1c(-c2c(O)ccc3ccccc23)cc(NS(=O)(=O)c2ccc(OC)cc2)c2ccccc12 [Compound 4, 2-hydroxy-4′-((4-methoxyphenyl)sulfonamido)-[1,2′-binaphthalen]-1′-yl methyl(3-(methylamino)propyl)carbamate hydrochloride], which “Aqueous Stability (pH = 2.0)” value (phosphate buffer pH 2.0, 37° C., up to 1440 minutes) is on record?
Its value is “Stable”.

And the “Aqueous Stability (pH = 3.5)” value (phosphate buffer pH 3.5, 37° C., up to 1440 minutes)?
The value was “Stable”.

And the “Aqueous Stability (pH = 7.4) (in words)” value (phosphate buffer pH 7.4, 37° C., up to 1440 minutes)?
The value was “Unstable;”.

And the half-life at 2 µM (in vitro)?
Its half-life at 2 µM is 4.3 min.

What about the half-life at 2 µM (physchem [1]) of the same molecule?
Its half-life at 2 µM is 1 h.

With COc1ccc(S(=O)(=O)Nc2cc(-c3c(O)ccc4ccccc34)c(OP(=O)(O)O)c3ccccc23)cc1 [Compound 9, 2-hydroxy-4′-((4-methoxyphenyl)sulfonamido)-[1,2′-binaphthalen]-1′-yl dihydrogen phosphate] as the molecule, how does the “Aqueous Stability (pH = 2.0)” value (pH 2) read?
The value was “Stable”.

What about the “Aqueous Stability (pH = 3.5)” value (pH 3.5) of the same molecule?
The value was “Stable”.

And the “Aqueous Stability (pH = 7.4) (in words)” value (pH 7.4)?
Its value is “Stable”.

And the “F % (bioavailability, calculated on dose levels)” value [2]?
Its value is 58.5%.

What about the T1/2 [2] of the same molecule?
Its T1/2 is 2.0 ± 0.4 h.

And the Tmax [2]?
The Tmax was 1.8 ± 1.7 h.

What about the AUClast ([2]; 22.4 mg/kg) of the same molecule?
Its AUClast is 37775 ± 14217 ng·h/mL.

What about the “F % (bioavailability, calculated on dose levels)” value [3] of the same molecule?
Its value is 81.3%.

What about the T1/2 [3] of the same molecule?
Its T1/2 is 6.7 ± 1.4 h.

And the Tmax [3]?
Its Tmax is 1.7 ± 0.6 h.

And the AUClast ([3]; 24.3 mg/kg)?
The AUClast was 75704 ± 14050 ng·h/mL.

What about the solubility (physchem [4]; [8]) of the same molecule?
The solubility was 1530 µg/mL.

And the solubility (physchem [4]; pH 7.4, aqueous buffer, Solubility (pH = 7.4))?
Its solubility is 6160 µg/mL.

With COc1ccc(S(=O)(=O)Nc2cc3c(c4ccccc24)OP(=O)(O)Oc2ccc4ccccc4c2-3)cc1 [Compound 9A, N-((6)-6-hydroxy-6-oxidodinaphtho[1,2-d:1′,2′-f][1,3,2]dioxaphosphepin-15-yl)-4-methoxybenzenesulfonamide] as the molecule, how does the “Solubility (pH = 7.4)” value [5] read?
The value was 37, 12 ug/mL.

What about the “Aqueous Stability (pH = 2.0)” value (pH 2) of the same molecule?
Its value is “Stable”.

What about the “Aqueous Stability (pH = 3.5)” value (pH 3.5) of the same molecule?
Its value is “Stable”.

And the “Aqueous Stability (pH = 7.4) (in words)” value (pH 7.4)?
The value was “Stable”.

And the “F % (bioavailability, calculated on dose levels)” value [3]?
Its value is 6.7%.

And the Tmax [3]?
The Tmax was 8.0 ± 0 h.

What about the AUClast ([3]; 53.5 mg/kg) of the same molecule?
Its AUClast is 5203 + 1048 ng*h/mL.

And the solubility (physchem [4]; [8])?
The solubility was 56 µg/mL (≈ 105 µM).

For COc1ccc(S(=O)(=O)Nc2cc(-c3c(O)ccc4ccccc34)c(O)c3ccccc23)cc1 [TTI-101, N-(1′,2-dihydroxy-[1,2′-binaphthalen]-4′-yl)-4-methoxybenzenesulfonamide], which “Solubility (in words)” value [6] is on record?
The value was “insoluble in aqueous solutions”.

What about the AUC(0-t) (in vivo; male, SD, iv, 21.5 mg/kg) of the same molecule?
Its AUC(0-t) is 72400 ± 15100 ng·h/mL.

What about the half-life (in vivo; male, SD, iv, 21.5 mg/kg) of the same molecule?
The half-life was 2.8 ± 0.6 h.

What about the bioavailability (in vivo; po) of the same molecule?
The bioavailability was 40.4%.

What about the AUC(0-t) [7] of the same molecule?
The AUC(0-t) was 116000 ± 7170 ng·h/mL.

And the half-life [7]?
The half-life was 2.4 ± 0.1 h.
